According to patent US6245917A, “Crystalline sodium phenytoin monohydrate” (Warner-Lambert Company, priority 1999, dated 2001):

Assays:
Format in all cases: physicochemical
[1] = Weight change under controlled humidity conditions, first study (SPM made by the toluene slurry)
Description: Study of weight change under controlled humidity conditions, samples were placed in open vials, which were placed in closed controlled-humidity jars. Relative humidities were controlled using saturated aqueous salt solutions: 58% RH, NaBr; 75% RH, (NH4)2 SO4; 76%, sodium acetate; 84% RH, KBr. Water uptake/loss characteristics of SPM and SPA were compared. Samples were kept at ambient temperature under various relative humidities (RHs) and were periodically weighed. […] The fact that SPM loses significant mass under even high humidity conditions is inconsistent with the loss of only water.

[2] = Repeated water uptake study with solvent-free SPM (dichloromethane preparation)
Description: Study of weight change under controlled humidity conditions, samples were placed in open vials, which were placed in closed controlled-humidity jars. Relative humidities were controlled using saturated aqueous salt solutions: 58% RH, NaBr; 75% RH, (NH4)2 SO4; 76%, sodium acetate; 84% RH, KBr.
A possible cause of the observed weight loss is that some reaction solvent (toluene in this case) from the preparation of SPM remained on the solid and evaporated in the humidity jars. To test this theory, it was decided to prepare SPM, show it to be solvent-free, and repeat the water uptake studies. Dichloromethane was chosen as the organic solvent for the preparation rather than toluene because its lower boiling point should allow it to be removed from the solid more easily and completely. SPM was made by stirring a slurry of SPA and one equivalent of water in dichloromethane for 2 days, then isolation by filtration and air-drying of the solid SPM.
The remainder of the SPM sample was allowed to dry in an open jar under ambient conditions for about 1 week. It was then characterized by XRPD elemental analysis, and Karl Fischer (KF) analysis. The sample appears to be pure SPM containing very little, if any, residual solvent.
Both SPM and SPA increased in weight about 20% when equilibrium was reached (constant weight) at each humidity utilized. The samples were analyzed by XRPD after completion of the water uptake experiments. […] The nature of this form has not been determined.

[3] = DSC and TGA thermal analyses; conditions: TGA, transitions at 364° C. and 409° C.
Experimental: Differential scanning calorimetry (DSC) experiments were performed on a Dupont DSC 2000 and thermogravimetric analyses (TGA) were performed on a Dupont TGA 2000. Nitrogen was used as the purge gas and heating rates were 10° C./minute. Standards were run prior to sample analyses; Sn for DSC and calcium oxalate for TGA.
Both SPM and SPA were analyzed by x-ray powder diffraction (XRPD), infrared (IR) spectroscopy, solid-state nuclear magnetic resonance (SSNMR) spectroscopy, differential scanning calorimetry (DSC) and thermogravimetric analysis (TGA). The XRPD patterns of SPM and SPA are quite different and distinguishable. While the IR and SSNMR spectra of SPM and SPA are different, the differences are subtle. SPM and SPA behave quite differently on both DSC and TGA thermal analyses. SPA undergoes endothermic transitions at 364° C. and 409° C. that are accompanied by a weight loss of 72%.

## O=C1NC(=O)C(c2ccccc2)(c2ccccc2)N1 [SPA, sodium phenytoin anhydrate, reference compound]
[1]; 58% RH
  Percent change based on average of final two weights: +24%
[1]; 75% RH
  Percent change based on average of final two weights: +25%
[1]; 84% RH
  Percent change based on average of final two weights: +25%
[1]; all humidities utilized, ambient temperature
  weight gained on reaching constant weight: 25%
[2]; 58% RH
  Percent change based on average of final two weights: +19%
[2]; 58% RH, day 0 (starting weight)
  sample weight: 1.5087 g
[2]; 58% RH, day 1
  change in starting weight: +0.0263 g
  sample weight: 1.5350 g
[2]; 58% RH, day 2
  change in starting weight: +0.0510 g
  sample weight: 1.5597 g
[2]; 58% RH, day 3
  change in starting weight: +0.0793 g
  sample weight: 1.5880 g
[2]; 58% RH, day 4
  change in starting weight: +0.1011 g
  sample weight: 1.6098 g
[2]; 58% RH, day 5
  change in starting weight: +0.1111 g
  sample weight: 1.6198 g
[2]; 58% RH, day 6
  change in starting weight: +0.1208 g
  sample weight: 1.6295 g
[2]; 58% RH, day 7
  change in starting weight: +0.1333 g
  sample weight: 1.6420 g
[2]; 58% RH, day 8
  change in starting weight: 0.1487 g
[2]; 58% RH, day 10
  change in starting weight: +0.1797 g
[2]; 58% RH, day 12
  change in starting weight: +0.2166 g
  sample weight: 1.7253 g
[2]; 58% RH, day 13
  change in starting weight: +0.2250 g
  sample weight: 1.7337 g
[2]; 58% RH, day 14
  change in starting weight: +0.2338 g
  sample weight: 1.7425 g
[2]; 58% RH, day 15
  change in starting weight: +0.2445 g
  sample weight: 1.7532 g
[2]; 58% RH, day 16
  change in starting weight: +0.2531 g
  sample weight: 1.7618 g
[2]; 58% RH, day 17
  change in starting weight: +0.2593 g
  sample weight: 1.7680 g
[2]; 58% RH, day 21
  change in starting weight: +0.2773 g
  sample weight: 1.7860 g
[2]; 58% RH, day 23
  change in starting weight: +0.2818 g
  sample weight: 1.7905 g
[2]; 58% RH, day 26
  change in starting weight: +0.2818 g
[2]; 75% RH
  Percent change based on average of final two weights: +21%
[2]; 75% RH, day 0 (starting weight)
  sample weight: 1.5037 g
[2]; 75% RH, day 1
  change in starting weight: +0.0581 g
  sample weight: 1.5618 g
[2]; 75% RH, day 2
  change in starting weight: +0.1166 g
  sample weight: 1.6203 g
[2]; 75% RH, day 3
  change in starting weight: +0.1625 g
  sample weight: 1.6662 g
[2]; 75% RH, day 4
  change in starting weight: +0.2103 g
  sample weight: 1.7140 g
[2]; 75% RH, day 5
  change in starting weight: +0.2501 g
  sample weight: 1.7538 g
[2]; 75% RH, day 6
  change in starting weight: +0.2825 g
  sample weight: 1.7862 g
[2]; 75% RH, day 7
  change in starting weight: +0.3054 g
  sample weight: 1.8091 g
[2]; 75% RH, day 8
  change in starting weight: +0.3152 g
[2]; 75% RH, day 10
  change in starting weight: +0.3165 g
[2]; 75% RH, day 12
  change in starting weight: +0.3197 g
  sample weight: 1.8234 g
[2]; 75% RH, day 13
  change in starting weight: +0.3171 g
  sample weight: 1.8208 g
[2]; 75% RH, day 14
  change in starting weight: +0.3152 g
  sample weight: 1.8189 g
[2]; 75% RH, day 15
  change in starting weight: +0.3146 g
  sample weight: 1.8183 g
[2]; 75% RH, day 16
  change in starting weight: +0.3139 g
  sample weight: 1.8176 g
[2]; 75% RH, day 17
  change in starting weight: +0.3117 g
  sample weight: 1.8154 g
[2]; 84% RH
  Percent change based on average of final two weights: +22%
[2]; 84% RH, day 0 (starting weight)
  sample weight: 1.5023 g
[2]; 84% RH, day 1
  change in starting weight: +0.0712 g
  sample weight: 1.5735 g
[2]; 84% RH, day 2
  change in starting weight: +0.1330 g
  sample weight: 1.6353 g
[2]; 84% RH, day 3
  change in starting weight: +0.1952 g
  sample weight: 1.6975 g
[2]; 84% RH, day 4
  change in starting weight: +0.2498 g
  sample weight: 1.7521 g
[2]; 84% RH, day 5
  change in starting weight: +0.2949 g
  sample weight: 1.7972 g
[2]; 84% RH, day 6
  change in starting weight: +0.3169 g
  sample weight: 1.8192 g
[2]; 84% RH, day 7
  change in starting weight: +0.3275 g
  sample weight: 1.8298 g
[2]; 84% RH, day 8
  change in starting weight: +0.3301 g
[2]; 84% RH, day 12
  change in starting weight: +0.3322 g
  sample weight: 1.8345 g
[2]; 84% RH, day 13
  change in starting weight: +0.3288 g
  sample weight: 1.8311 g
[2]; 84% RH, day 14
  change in starting weight: +0.3260 g
  sample weight: 1.8283 g
[2]; 84% RH, day 15
  change in starting weight: +0.3255 g
  sample weight: 1.8278 g
[2]; 84% RH, day 16
  change in starting weight: +0.3249 g
  sample weight: 1.8272 g
[2]; 84% RH, day 17
  change in starting weight: +0.3225 g
  sample weight: 1.8248 g
[3]
  weight loss accompanying the endothermic transitions: 72%
